Marks after values point to notes of the source that are not given here.
Key:
Type in all cases: in vivo
[1] = test system: haploid embryos of maize plant "A"; assay: Chromosome doubling of isolated haploid immature maize embryos on colchicine medium (Example 2); conditions: 0.05% colchicine, 24 hours
Description: A diploid maize plant, “A”, was pollinated with a haploid inducer line containing GFP. Immature embryos were isolated at 12 days after pollination and the embryo size is ranged from 1.9-2.0 mm long. The diploid embryos, GFP expressing embryos, were discarded. The haploid embryos, based on the absence of the GFP marker expression, were cultured on a medium comprising MS salts, MS vitamins, thiamine, asparagine, BAP, sucrose, gelrite, and 0.05% colchicine with scutellum side up for 24 hours at 26 C in the dark. […] This medium comprised MS salts, MS vitamins, myo-inositol, sucrose, and gelrite. The plantlets germinated from these treated embryos, were transferred to a light culture room at 26 C for another 2 -3 weeks until healthy plantlets with good roots developed. These plantlets were transferred to soil and grown in a regular greenhouse to maturation. The plants were self-pollinated and the mature seeds will be harvested. The harvested seed from each plant will be grown as an ear-row and the plants will examined for uniformity of the plant morphology within each ear-row.

[2] = test system: ears of hybrid maize plants pollinated by haploid inducer plants; assay: Immature ear treatment for haploid doubling, ear/stalk in liquid medium with Pronamide (Example 6); conditions: 5 uM Pronamide, 0.5% DMSO, one day
Description: Hybrid maize plants were pollinated by haploid inducer plants. The ears with part of the stalks attached were harvested from the hybrid plants 4-6 days after pollination (embryo length less than 0.4 mm). The stalks were about 4-8 inches long on each side of where the ears were attached. The ears and the attached stalks are surface sterilized with 70% ethanol or 5% Chlorox. The lower ends of the stalks containing the ears were emerged into liquid medium containing MS medium, MS vitamins, sucrose, etc and 5 uM Pronamide, 0.5% DM SO for one day at 26 C. Then the ears still contained an the stalks were moved to a fresh medium containing MS medium, MS vitamins, sucrose etc. without doubling agent to allow the embryos and kernels to develop. The embryos within the ear can be isolated at any time after doubling. Embryo rescue can then be used to germinate immature embryos into plants. The germinated plants were grown to examine fertility.

[3] = test system: haploid embryos of maize lines "B" and "C"; assay: Chromosome doubling of isolated haploid immature maize embryos on pronamide medium (Example 3); conditions: 6 uM pronamide, 48 hours
Description: Two different diploid maize lines, “B” and “C” were pollinated with a haploid inducer line, containing homozygousGFP. Immature embryos were isolated at 11 days after pollination and embryo size ranged from 1.5-1.6 mm in length. The diploid embryos, embryos showing GFP expression, were discarded. The haploid embryos, embryos not expressing GFP, were cultured on a modified MS medium containing 6 uM pronamide with scutellum side up for 48 hours at 26 C in dark. Alter approximately 48 hours the embryos were transferred to a modified MS medium without any doubling agent. Embryos were placed with scutellum side down for 6-10 days at 26 C in the dark. The plantlets germinated torn these treated embryos were then moved into a light culture room at 28 C for another 3 weeks till healthy plantlets with good roots developed. These plantlets were then transferred to soil and grown in a regular greenhouse to maturation. The plants were self pollinated and the mature seeds will be harvested. The harvested seed will be planted as an ear-row. The plants within a row will be examined for uniformity of the plant morphology.

[4] = test system: immature embryos of hybrid maize plants pollinated with maternal-haploid-inducing line; assay: Testing different hybrids and timing of doubling agent (Example 9)
Description: A maternal-haploid-inducing maize line was used to pollinate 4 different hybrid plants. The immature embryos derived from these crosses were isolated and placed directly on embryo rescue medium containing 5 uM pronamide. Embryos were kept on the pronamide medium for approximately 36 or 48 hours before being transferred to new media without the doubling agent.
The plantlets germinated from these treated embryos were then transferred into tubes until healthy plantlets with good roofs developed. These plantlets were then transferred to soil and grown in a regular greenhouse to maturation. The plants were self-pollinated and the mature seeds were harvested.

[5] = Ear 1, ear/stalk harvest 6 days after pollination
[6] = Ear 2, ear/stalk harvest 6 days after pollination
[7] = Ear 3, ear/stalk harvest 5 days after pollination
[8] = Ear 4, ear/stalk harvest 4 days after pollination

In the case of `COc1cc2c(c(OC)c1OC)-c1ccc(OC)c(=O)cc1[C@@H](NC(C)=O)CC2` [colchicine, (S)-N-(5,6,7,9-tetrahydro-1,2,3,10-tetramethoxy-9-oxobenzo (a)heptalen-7-yl) acetamide], the “Fully Fertile Plants” value ([1]; Ear 1, 3 haploid embryos) is reported as 2, the “Fully Fertile Plants” value ([1]; Ear 2, 7 haploid embryos) is reported as 4* and the “Fully Fertile Plants” value ([1]; Ear 3, 9 haploid embryos) is reported as 8. For the same molecule, the “Fully Fertile Plants, percent of plantlets to greenhouse” value ([1]; Sum of 3 ears) was “(93.3%)”, the “Plantlets Germinated, percent of haploid embryos” value ([1]; Sum of 3 ears) was “(84.2%)” and the “Fully Fertile Plants” value ([1]; Sum of 3 ears, 19 haploid embryos) was 14.

With `C#CC(C)(C)NC(=O)c1cc(Cl)cc(Cl)c1` [pronamide, 3,5-dichloro-N-(1,1-dimethyl-2-propynyl)benzamide] the “% of plants with fertile tassel” value [2, 5] was 67%, the “Number of plants with fertile tassel” value [2, 5] was 16 and the “Number of plants with sterile tassel” value [2, 5] was 8. The “% of plants with fertile tassel” value [2, 6] was 94%, the “Number of plants with fertile tassel” value [2, 6] was 30 and the “Number of plants with sterile tassel” value [2, 6] was 2. For the same molecule, the “% of plants with fertile tassel” value [2, 7] was 70%, the “Number of plants with fertile tassel” value [2, 7] was 14 and the “Number of plants with sterile tassel” value [2, 7] was 6. The “% of plants with fertile tassel” value [2, 8] was 95%, the “Number of plants with fertile tassel” value [2, 8] was 19 and the “Number of plants with sterile tassel” value [2, 8] was 1. The “% of plants with fertile tassel” value ([2]; Sum of 4 ears) was 82%, the “Number of plants with fertile tassel” value ([2]; Sum of 4 ears) was 79 and the “Number of plants with sterile tassel” value ([2]; Sum of 4 ears) was 17. For the same molecule, the “Fully Fertile Plant” value ([3]; Line B, 11 haploid embryos) was 2*, the “Fully Fertile Plant” value ([3]; Line C, 4 haploid embryos) was 3 and the “Fully Fertile Plant, percent of plantlets to greenhouse” value ([3]; Sum of lines B and C) was “(83.3%)”. For the same molecule, the “Plantlet Germinated, percent of haploid embryos” value ([3]; Sum of lines B and C) was “(53.3%)”, the “Fully Fertile Plant” value ([3]; Sum of lines B and C, 15 haploid embryos) was 5 and the “# of Double Haploid Plants with Ears” value ([4]; 5 uM Pronamide 36 hours, Hybrid 1, 11 days after pollination, 100 embryos excised, embryo size 2.5 mm) was 1. The “# of Double Haploid Plants with Ears” value ([4]; 5 uM Pronamide 36 hours, Hybrid 1, 12 days after pollination, 300 embryos excised, embryo size 2.5 mm) was 1, the “# of Double Haploid Plants with Ears” value ([4]; 5 uM Pronamide 36 hours, Hybrid 2, 11 days after pollination, 176 embryos excised, embryo size 2.5-3 mm) was 4 and the “# of Double Haploid Plants with Ears” value ([4]; 5 uM Pronamide 36 hours, Hybrid 3, 12 days after pollination, 279 embryos excised, embryo size 2.5-3 mm) was 13. The “# of Double Haploid Plants with Ears” value ([4]; 5 uM Pronamide 36 hours, Hybrid 4, 12 days after pollination, 322 embryos excised, embryo size 2.5 mm) was 2, the “# of Double Haploid Plants with Ears” value ([4]; 5 uM Pronamide 48 hours, Hybrid 3, 10 days after pollination, 236 embryos excised, embryo size 2 mm) was 6 and the “# of Double Haploid Plants with Ears” value ([4]; 5 uM Pronamide 48 hours, Hybrid 4, 10 days after pollination, 144 embryos excised, embryo size 2 mm) was 3. The “Homozygosity of progeny of double haploid plants” value ([4]; 5 uM pronamide 36 or 48 hours, sample of plants, 120 molecular markers) was “confirmed for homozygosity”.

Reference: patent US20130205438A1, “DOUBLING OF CHROMOSOMES IN HAPLOID EMBRYOS” (PIONEER HI BRED INTERNATIONAL INC, priority 2005, published 2013)
